Measurements from patent US9517244B2, “Therapeutic combinations for use in neoplasia” (University of Florida Research Foundation, Inc., priority 2011, dated 2016).

Assays:
APE1 [1] = biological target: T1, APE1 (Homo sapiens, UniProt P27695); experiment: in vitro APE1 activity assay with purified APE1 and 32P-labeled 63-mer F-DNA; assay type: biochemical
Description: FIGS. 4A and 4B depict the screening of small molecules. FIG. 4A depicts an in vitro assay system to determine the effect of compounds on the blockage of APE1-activity using purified APE1 and ^32P-labeled 63-mer F-DNA. FIG. 4B is a gel depicting the effect of the small molecules on APE1 activity. […] Data are representative of duplicate experiments.
FIG. 5A depicts an in vitro assay protocol using purified APE1 protein. FIG. 5B is an image of a gel showing a dose-dependent effect of NSC-30049 on APE1 activity. […] FIG. 5C is a graph depicting the percent cleavage and the IC50 of NSC-30049 to block APE1 activity, showing that APE1 is blocked in a dose-dependent manner. Data is mean±SE of three different experiments.
To determine the effect of compounds on the blockage of APE1 activity, an in vitro assay system was developed using purified APE1 and ^32P-labeled 63-mer F-DNA (FIG. 4A). Several small molecules (NSC-9746, NSC-18468, NSC-2137, NAC-30049 and NSC-32895) were screened for their ability to inhibit APE1 activity in the in vitro assay (FIG. 4B).

DNA ligase I = DNA ligase I (Homo sapiens, UniProt P18858); experiment: DNA ligase I activity in vitro; assay type: biochemical; conditions: DNA ligase I 1 nM
Method: Lanes 4-7 contained increasing concentrations of NSC-30049 (0.5, 1, 2.5, and 5 μM, respectively). The arrows indicate the positions of the 63-mer substrate and the products. […] Data are representative of three different experiments.

APE1 [2] = biological target: T1, APE1; experiment: fluorescence anisotropy, APE1 binding to AP-site DNA
Description: FIGS. 7A and 7B show the effect of NSC-30049 on the APE1 affinity for AP-lesion containing DNA. […] FIG. 7B is a table showing the apparent Kd values of the data. Values are the mean±SD of triplicate estimations.
The small molecule inhibitor (SMI), NSC-30049, was identified as an inhibitor of APE1 endonuclease activity by molecular docking.

solubility in water = assay type: physicochemical
AsPC1 = experiment: MTT assay, pancreatic cancer cell line; assay type: cell-based, human; conditions: Homo sapiens; AsPC1 (dFdC-resistant); single agent; 72 h; read-out: IC50
Mia-PaCa2 = experiment: MTT assay, pancreatic cancer cell line; assay type: cell-based, human; conditions: Homo sapiens, MIA PaCa-2; Mia-PaCa2 (dFdC-resistant); single agent; 72 h; read-out: IC50
BxPC3 = experiment: MTT assay, pancreatic cancer cell line; assay type: cell-based, human; conditions: Homo sapiens, BXPC-3; BxPC3 (dFdC-sensitive); single agent; 72 h; read-out: IC50
HPAC = experiment: MTT assay, pancreatic cancer cell line; assay type: cell-based, human; conditions: Homo sapiens; HPAC (dFdC-sensitive); single agent; 72 h; read-out: IC50
MiaPaCa2-Lu tumors = experiment: orthotopic MiaPaCa2-Lu tumors in athymic mice, tumor luciferase expression; assay type: in vivo; conditions: combination treatment of NSC-30049 and CDDP
Description: FIG. 8A depicts in situ imaging of orthotopic MiaPaCa2-Lu tumors growing in female athymic (nu/nu) mice.

[3] = tested on: CD133, Nanog, Oct4, Sox2 expression in GBM-L0 stem cells; experiment: qRT-PCR of self-renewal genes in GBM-L0 stem cells; assay type: cell-based; conditions: 2.5 μM NSC-30049 + 10 or 100 μM TMZ, 36 h, compared to either alone
Method: Cells were pretreated with 2.5 μM of NSC30049 or 10 or 100 μM TMZ alone or in combination with NSC-30049 for 36 h. Then, total RNA was isolated and processed for gRT-PCR. Data presented are the mean±SE of three different measurements. […] Treatment with NSC-30049 or TMZ reduced the expression of aldehyde dehydrogenase gene Aldh1a7 in GBM-LO stem cell line in vitro, but not treatment with NSC-30049 and TMZ. Cells were pretreated with 2.5 μM of NSC30049 or 10 or 100 μM of TMZ alone or in combination with NSC-30049 for 36 h. Then, total RNA was isolated and processed for qRT-PCR. Data presented are the mean±SE of three different measurements.
Without being bound to a particular theory, the effect of administration of NSC-30049 in combination with temozolomide (TMZ) on the expression of self-renewal marker genes of […] was analyzed. Self-renewal marker genes are highly expressed in colon cancer stem cells compared to human parental cancer cells. qRT-PCR data of CD133+, Oct4, Sox2 and Nanog gene expression levels of GBM-L0 stem cells was obtained (FIG. 14A). Cells were pretreated with 2.5 μM of NSC30049 or 10 or 100 μM of TMZ alone or in combination with NSC-30049 for 36 h. Then, total RNA was isolated and processed for qRT-PCR. Data presented are the mean±SE of three different measurements. […]

T1 sequence (P27695 whole entry): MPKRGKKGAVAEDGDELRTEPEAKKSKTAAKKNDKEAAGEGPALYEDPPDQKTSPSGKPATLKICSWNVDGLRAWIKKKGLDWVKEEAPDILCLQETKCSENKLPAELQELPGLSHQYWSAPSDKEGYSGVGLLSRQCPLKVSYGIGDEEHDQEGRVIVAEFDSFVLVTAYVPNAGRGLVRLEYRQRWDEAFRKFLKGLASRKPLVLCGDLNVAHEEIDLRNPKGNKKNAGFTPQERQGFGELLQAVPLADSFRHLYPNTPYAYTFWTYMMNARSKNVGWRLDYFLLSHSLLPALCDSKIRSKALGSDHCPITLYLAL
Chain of DNA ligase I (P18858 whole entry, species assumed): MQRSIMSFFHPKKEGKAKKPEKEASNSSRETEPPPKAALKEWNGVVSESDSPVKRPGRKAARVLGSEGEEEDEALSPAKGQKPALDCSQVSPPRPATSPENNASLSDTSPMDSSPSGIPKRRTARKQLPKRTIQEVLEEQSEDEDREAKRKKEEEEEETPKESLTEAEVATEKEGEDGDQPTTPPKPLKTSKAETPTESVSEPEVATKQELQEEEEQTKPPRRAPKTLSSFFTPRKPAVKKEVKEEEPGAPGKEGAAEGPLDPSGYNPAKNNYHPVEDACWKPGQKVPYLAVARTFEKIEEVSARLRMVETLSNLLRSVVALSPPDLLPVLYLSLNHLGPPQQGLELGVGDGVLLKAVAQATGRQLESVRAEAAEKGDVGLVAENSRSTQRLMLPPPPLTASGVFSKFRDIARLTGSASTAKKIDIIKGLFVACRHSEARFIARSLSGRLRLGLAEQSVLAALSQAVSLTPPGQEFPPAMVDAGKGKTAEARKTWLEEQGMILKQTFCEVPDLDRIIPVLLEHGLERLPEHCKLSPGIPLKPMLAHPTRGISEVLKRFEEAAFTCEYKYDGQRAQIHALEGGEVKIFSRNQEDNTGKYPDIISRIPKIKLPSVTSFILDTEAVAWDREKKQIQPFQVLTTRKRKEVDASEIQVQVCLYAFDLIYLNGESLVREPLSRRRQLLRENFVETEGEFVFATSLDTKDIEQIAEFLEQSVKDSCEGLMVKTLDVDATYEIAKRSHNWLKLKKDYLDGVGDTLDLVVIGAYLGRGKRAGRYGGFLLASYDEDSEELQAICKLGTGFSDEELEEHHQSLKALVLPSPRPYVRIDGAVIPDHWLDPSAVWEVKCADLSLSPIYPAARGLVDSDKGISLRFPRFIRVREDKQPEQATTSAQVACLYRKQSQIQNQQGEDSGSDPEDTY

ClCC=CC[N+]12CN3CN(CN(C3)C1)C2 [NSC-30049, 1-(4-Chloro-2-butenyl)-1λ˜5˜,3,5,7-tetraazatricyclo[3.3.1.1˜3,7˜]decane]
inhibition of APE1 activity in screen (APE1 [1]; 5, 10, 20 and 40 μM): inhibit APE1 activity in the in vitro assay at all concentrations tested
IC50 (APE1 [1]; purified APE1, read-out: IC50 to block APE1 activity): 0.0072 µM
effect on DNA ligase I activity (DNA ligase I): did not affect DNA ligase I activity
binding of APE1 with AP-site DNA (APE1 [2]): blocked the binding of APE1 with AP-site DNA in a dose-dependent manner
solubility in water (solubility in water): readily soluble in water
IC50 (AsPC1): 1.88 ± 0.11 µM
IC50 (Mia-PaCa2): 5.12 ± 0.22 µM
IC50 (BxPC3): 3.87 ± 0.24 µM
IC50 (HPAC): 4.44 ± 0.28 µM
inhibition of tumor growth (tumor luciferase expression) (MiaPaCa2-Lu tumors): synergistic effect on the inhibition of MiaPaCa2-Lu tumor growth
expression of CD133, Nanog, Oct4, and Sox2 [3]: significantly inhibited the expression of CD133, Nanog, Oct4, and Sox2
